Source: patent US20230381473A1, “Drug Device Electroporation Angioplasty System” (Hydra Vascular LLC, priority 2014, published 2023)

Assay: Ex vivo energy facilitated drug delivery from coated balloon to arteries in closed flow loop, HPLC quantification
Format: in vitro ADME, swine
Details: ex vivo porcine arteries, Trireme Chocolate balloon 6.0×40 coated with paclitaxel:PEG-8000 5:1 at 3.0 ug/mm2, GenePulser II 0.5 kV/1 μF, 3 pulses during about 1 minute expansion, vs same device without voltage
From the text: The energy source to power the device is a pulse generator capable of producing square waves. One commercial example of such a device is the BioRad Gene Pulser II (FIG. 7). The square wave generator produces suitable voltages between the range of 0.001 kV and 5 kV across the membrane. For all prototyping, this device was used to power all of coated catheters by connecting to the wire connection at the proximal catheter end. […] The tissue is then stored in isotonic saline and placed on ice (or 4° C.) for immediate use in an ex-vivo circulatory system.
Ex Vivo Testing Protocol • Fresh PBS is made with pre-measured pellets (1 pellet/100 ml H2O). • Porcine arterial tissue was acquired and cut to length • Arteries are placed in fresh PBS while cleaning of adventitia is performed. • Arteries are attached to the circulation apparatus with cannulas to allow flow through the vessel. […]

SMILES: CC(=O)O[C@H]1C(=O)[C@@]2(C)[C@H]([C@H](OC(=O)c3ccccc3)[C@]3(O)C[C@H](OC(=O)[C@H](O)[C@@H](NC(=O)c4ccccc4)c4ccccc4)C(C)=C1C3(C)C)[C@]1(OC(C)=O)CO[C@@H]1C[C@@H]2O [paclitaxel]
- enhancement of the transfer of paclitaxel to arteries by application of voltage (factor): 10 ×
